Results: PubChem BioAssay (NCI)
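Each compound was tested at five concentrations against cells in 96-well plates for 48 hours. GI50 = concentration required for 50% inhibition of growth. The concentration for full growth arrest is given as TGI.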

Tests used:
Test in all cases: DTP human tumour cell line panel, 48 h
[1] = tested on: 786-0 renal
[2] = tested on: A498 renal
[3] = tested on: A549 NSCLC
[4] = tested on: ACHN renal
[5] = tested on: BT-549 breast
[6] = tested on: CAKI-1 renal
[7] = tested on: CCRF-CEM leukemia
[8] = tested on: COLO 205 colon
[9] = tested on: DU-145 prostate
[10] = tested on: EKVX NSCLC
[11] = tested on: HCC-2998 colon
[12] = tested on: HCT-116 colon
[13] = tested on: HCT-15 colon
[14] = tested on: HL-60(TB) leukemia
[15] = tested on: HOP-62 NSCLC
[16] = tested on: HOP-92 NSCLC
[17] = tested on: HS 578T breast
[18] = tested on: HT29 colon
[19] = tested on: IGROV1 ovarian
[20] = tested on: K-562 leukemia
[21] = tested on: KM12 colon
[22] = tested on: LOX IMVI melanoma
[23] = tested on: M14 melanoma
[24] = tested on: MALME-3M melanoma
[25] = tested on: MCF7 breast
[26] = tested on: MDA-MB-231 breast
[27] = tested on: MDA-MB-435
[28] = tested on: MOLT-4 leukemia
[29] = tested on: NCI-H226 lung
[30] = tested on: NCI-H460 lung
[31] = tested on: NCI-H522 lung
[32] = tested on: NCI/ADR-RES ovarian
[33] = tested on: OVCAR-3 ovarian
[34] = tested on: OVCAR-4 ovarian
[35] = tested on: OVCAR-5 ovarian
[36] = tested on: OVCAR-8 ovarian
[37] = tested on: PC-3 prostate
[38] = tested on: RPMI-8226 leukemia
[39] = tested on: RXF 393 renal
[40] = tested on: SF-268 CNS
[41] = tested on: SF-295 CNS
[42] = tested on: SF-539 CNS
[43] = tested on: SK-MEL-2 melanoma
[44] = tested on: SK-MEL-28 melanoma
[45] = tested on: SK-MEL-5 melanoma
[46] = tested on: SK-OV-3 ovarian
[47] = tested on: SN12C renal
[48] = tested on: SNB-19 CNS
[49] = tested on: SNB-75 CNS
[50] = tested on: SR leukemia
[51] = tested on: SW-620 colon
[52] = tested on: T-47D breast
[53] = tested on: TK-10 renal
[54] = tested on: U251 CNS
[55] = tested on: UACC-257 melanoma
[56] = tested on: UACC-62 melanoma
[57] = tested on: UO-31 renal
[58] = tested on: NCI-H23 lung

NS(=O)(=O)c1cccc(Nc2nc(SCC(=O)c3ccc([N+](=O)[O-])cc3)nc3ccccc23)c1
GI50 [1]: 48.5 µM | TGI [1]: > 100 µM | GI50 [2]: 38.4 µM | TGI [2]: > 100 µM | GI50 [3]: 32 µM | TGI [3]: > 100 µM | GI50 [4]: 30.6 µM | TGI [4]: > 100 µM | GI50 [5]: 11.3 µM | TGI [5]: 51.5 µM | GI50 [6]: 32.1 µM | TGI [6]: > 100 µM | GI50 [7]: 20.3 µM | TGI [7]: > 100 µM | GI50 [8]: 40.3 µM | TGI [8]: > 100 µM | GI50 [9]: 28.7 µM | TGI [9]: > 100 µM | GI50 [10]: 32.9 µM | TGI [10]: > 100 µM | GI50 [11]: 31.7 µM | TGI [11]: > 100 µM | GI50 [12]: 31.3 µM | TGI [12]: > 100 µM | GI50 [13]: 38.7 µM | TGI [13]: > 100 µM | GI50 [14]: 22.2 µM | TGI [14]: 64.3 µM | GI50 [15]: 28.8 µM | TGI [15]: > 100 µM | GI50 [16]: 14 µM | TGI [16]: > 100 µM | GI50 [17]: 35.2 µM | TGI [17]: > 100 µM | GI50 [18]: 38.8 µM | TGI [18]: > 100 µM | GI50 [19]: 24 µM | TGI [19]: > 100 µM | GI50 [20]: 23.6 µM | TGI [20]: > 100 µM | GI50 [21]: 37.6 µM | TGI [21]: > 100 µM | GI50 [22]: 31.4 µM | TGI [22]: > 100 µM | GI50 [23]: 31.6 µM | TGI [23]: > 100 µM | GI50 [24]: 44.5 µM | TGI [24]: > 100 µM | GI50 [25]: 12.4 µM | TGI [25]: > 100 µM | GI50 [26]: > 100 µM | TGI [26]: > 100 µM | GI50 [27]: 44.9 µM | TGI [27]: > 100 µM | GI50 [28]: 12.9 µM | TGI [28]: 45.1 µM | GI50 [29]: 21.2 µM | TGI [29]: 70.8 µM | GI50 [30]: 26.2 µM | TGI [30]: > 100 µM | GI50 [31]: 20.1 µM | TGI [31]: 89.6 µM | GI50 [32]: > 100 µM | TGI [32]: > 100 µM | GI50 [33]: 19.6 µM | TGI [33]: 72.9 µM | GI50 [34]: 26.6 µM | TGI [34]: > 100 µM | GI50 [35]: > 100 µM | TGI [35]: > 100 µM | GI50 [36]: 25.3 µM | TGI [36]: > 100 µM | GI50 [37]: 20.2 µM | TGI [37]: > 100 µM | GI50 [38]: 16.1 µM | TGI [38]: 83 µM | GI50 [39]: 23.2 µM | TGI [39]: > 100 µM | GI50 [40]: 43.7 µM | TGI [40]: > 100 µM | GI50 [41]: 38.3 µM | TGI [41]: > 100 µM | GI50 [42]: 31.3 µM | TGI [42]: > 100 µM | GI50 [43]: 14.4 µM | TGI [43]: 44 µM | GI50 [44]: 34.9 µM | TGI [44]: > 100 µM | GI50 [45]: 22.3 µM | TGI [45]: 88.1 µM | GI50 [46]: 63.2 µM | TGI [46]: > 100 µM | GI50 [47]: 40.9 µM | TGI [47]: > 100 µM | GI50 [48]: > 100 µM | TGI [48]: > 100 µM | GI50 [49]: > 100 µM | TGI [49]: > 100 µM | GI50 [50]: 21.1 µM | TGI [50]: > 100 µM | GI50 [51]: 64.2 µM | TGI [51]: > 100 µM | GI50 [52]: 9.95 µM | TGI [52]: 65.4 µM | GI50 [53]: 54.5 µM | TGI [53]: > 100 µM | GI50 [54]: 58.2 µM | TGI [54]: > 100 µM | GI50 [55]: 30.1 µM | TGI [55]: > 100 µM | GI50 [56]: 16.3 µM | TGI [56]: 37.3 µM | GI50 [57]: 32.6 µM | TGI [57]: > 100 µM

C#C[C@]1(O)CC[C@H]2[C@@H]3CC=C4c5sc(-c6ccc7c(c6)OCO7)nc5CC[C@]4(C)[C@H]3CC[C@@]21C
GI50 [1]: 0.841 µM | TGI [1]: 3.78 µM | GI50 [2]: 1.63 µM | TGI [2]: 7.49 µM | GI50 [3]: 2.76 µM | TGI [3]: 8.48 µM | GI50 [4]: 2.11 µM | TGI [4]: 5.57 µM | GI50 [5]: 1.99 µM | TGI [5]: 5.67 µM | GI50 [6]: 2.63 µM | TGI [6]: 8.37 µM | GI50 [7]: 2.8 µM | TGI [7]: > 100 µM | GI50 [8]: 3.87 µM | TGI [8]: 27.8 µM | GI50 [9]: 3.45 µM | TGI [9]: 70.5 µM | GI50 [10]: 3.55 µM | TGI [10]: 73.5 µM | GI50 [11]: 5.56 µM | TGI [11]: > 100 µM | GI50 [12]: 1.84 µM | TGI [12]: 5.3 µM | GI50 [13]: 1.93 µM | TGI [13]: 6.28 µM | GI50 [14]: 3.8 µM | TGI [14]: > 100 µM | GI50 [15]: 2.53 µM | TGI [15]: 7.94 µM | GI50 [16]: 8.39 µM | TGI [16]: 29.8 µM | GI50 [17]: 0.501 µM | TGI [17]: 3.98 µM | GI50 [18]: 2.32 µM | TGI [18]: 7.65 µM | GI50 [19]: 2.98 µM | TGI [19]: 8.3 µM | GI50 [20]: 3.53 µM | TGI [20]: > 100 µM | GI50 [21]: 3.46 µM | TGI [21]: 31.1 µM | GI50 [22]: 1.73 µM | TGI [22]: 4.3 µM | GI50 [23]: 1.73 µM | TGI [23]: 5.34 µM | GI50 [24]: 2.69 µM | TGI [24]: 8.62 µM | GI50 [25]: 1.87 µM | TGI [25]: 4.95 µM | GI50 [26]: 3.45 µM | TGI [26]: 40.8 µM | GI50 [27]: 1.97 µM | TGI [27]: 4.17 µM | GI50 [28]: 2.8 µM | TGI [28]: > 100 µM | GI50 [29]: 3.31 µM | TGI [29]: 12.6 µM | GI50 [58]: 2.13 µM | TGI [58]: 5.29 µM | GI50 [30]: 2.38 µM | TGI [30]: 5.64 µM | GI50 [31]: 2.38 µM | TGI [31]: 6.17 µM | GI50 [32]: 3.34 µM | TGI [32]: 17 µM | GI50 [33]: 3 µM | TGI [33]: 11.9 µM | GI50 [34]: 3.33 µM | TGI [34]: 9.95 µM | GI50 [35]: 2.08 µM | TGI [35]: 5.29 µM | GI50 [36]: 3.43 µM | TGI [36]: 86.3 µM | GI50 [37]: 1.68 µM | TGI [37]: 4.46 µM | GI50 [40]: 4.97 µM | TGI [40]: 27.7 µM | GI50 [41]: 0.52 µM | TGI [41]: 2.56 µM | GI50 [42]: 0.428 µM | TGI [42]: 1.96 µM | GI50 [43]: 2.14 µM | TGI [43]: 6.37 µM | GI50 [44]: 1.29 µM | TGI [44]: 2.85 µM | GI50 [45]: 2.64 µM | TGI [45]: 6.99 µM | GI50 [46]: 4.83 µM | TGI [46]: 26.6 µM | GI50 [47]: 2.88 µM | TGI [47]: 9.83 µM | GI50 [48]: 2.59 µM | TGI [48]: 13.8 µM | GI50 [49]: 1.73 µM | TGI [49]: 8.25 µM | GI50 [50]: 2.64 µM | TGI [50]: > 100 µM | GI50 [51]: 2.07 µM | TGI [51]: 5.28 µM | GI50 [52]: 3.62 µM | TGI [52]: 27.6 µM | GI50 [53]: 3.39 µM | TGI [53]: 10.1 µM | GI50 [54]: 1.41 µM | TGI [54]: 4.53 µM | GI50 [55]: 2.43 µM | TGI [55]: 6.7 µM | GI50 [56]: 2.24 µM | TGI [56]: 5.19 µM | GI50 [57]: 2.03 µM | TGI [57]: 5.47 µM
